Test [1] relates to Haemophilus influenzae. The experiment in a line: Antimicrobial activity against Haemophilus influenzae after broth microdilution method. Format: functional.
Test [2] is described as follows: Inhibition of Escherichia coli ACCase.
A short description of test [3]: Inhibition of bacteria biotin carboxylase.
Test [4] in a line: Inhibition of Staphylococcus sp. APH(3')-3a.
The subject of test [5] is Enterococcus sp. The test can be described thus: Antimicrobial activity against Enterococcus. Format: functional.
Test [6] concerns Staphylococcus sp. The test can be described thus: Antimicrobial activity against Staphylococcus. It counts as functional.
Test [7] is described as follows: Inhibition of DNA gyrase.
Test [8] concerns the target T1, Pantothenate synthetase (Mycobacterium tuberculosis, UniProt P9WIL5).
T1 sequence (P9WIL5 whole entry): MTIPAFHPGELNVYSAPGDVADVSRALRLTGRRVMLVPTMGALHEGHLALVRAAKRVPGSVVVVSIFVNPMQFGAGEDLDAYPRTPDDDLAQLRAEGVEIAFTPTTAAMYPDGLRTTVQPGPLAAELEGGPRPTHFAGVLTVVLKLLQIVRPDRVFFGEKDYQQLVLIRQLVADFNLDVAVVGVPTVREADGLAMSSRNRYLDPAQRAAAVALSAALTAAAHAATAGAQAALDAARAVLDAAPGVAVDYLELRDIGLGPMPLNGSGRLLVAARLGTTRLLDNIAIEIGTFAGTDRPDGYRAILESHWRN
The experiment in a line: Inhibition of Mycobacterium tuberculosis Pantothenate synthetase.

The nature of test [9]: Inhibition of Saccharomyces cerevisiae Hsp90.
The target of test [10] is T2, Virulence sensor histidine kinase PhoQ (Salmonella typhimurium (strain LT2 / SGSC1412 / ATCC 700720), UniProt P0DM80).
T2 sequence (P0DM80 whole entry): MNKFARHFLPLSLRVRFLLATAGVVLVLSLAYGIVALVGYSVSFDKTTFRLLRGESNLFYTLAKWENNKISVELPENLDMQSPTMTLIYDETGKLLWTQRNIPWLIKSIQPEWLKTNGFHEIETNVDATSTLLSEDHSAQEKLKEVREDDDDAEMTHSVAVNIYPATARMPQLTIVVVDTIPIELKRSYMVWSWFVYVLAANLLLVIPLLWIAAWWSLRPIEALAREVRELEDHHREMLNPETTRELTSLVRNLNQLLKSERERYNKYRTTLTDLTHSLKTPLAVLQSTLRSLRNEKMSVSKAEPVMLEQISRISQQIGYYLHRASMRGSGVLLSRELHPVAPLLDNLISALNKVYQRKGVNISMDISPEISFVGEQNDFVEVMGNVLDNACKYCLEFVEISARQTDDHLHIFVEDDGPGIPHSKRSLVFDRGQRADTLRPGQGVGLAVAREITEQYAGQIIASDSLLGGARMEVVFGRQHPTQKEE
The experiment in a line: Inhibition of Salmonella typhimurium sensor kinase PhoQ. On the set-up: species or system Salmonella enterica subsp. enterica serovar Typhimurium.

A short description of test [11]: Inhibition of Saccharomyces cerevisiae sensor kinase Sln1.
Test [12] concerns the target T1, Pantothenate synthetase. The test can be described thus: Binding affinity to Mycobacterium tuberculosis Pantothenate synthetase.
A short description of test [13]: Inhibition of EnvZ by strand-transfer assay.
Test [14] in a line: Inhibition of Escherichia coli His6-tagged ParC/ParE expressed in baculovirus-infected Sf9 cells by gel electrophoresis.

In brackets after ≈: the same amount, converted by molar mass.

A word on the IC50: it is the concentration at which inhibition is half-maximal. Higher therefore signals weaker potency in that assay. On to `COc1cccc(OC)c1-c1cc2cnc(N)nc2nc1N`, for which, in test [1], the MIC was found to be 0.125 µg/mL (≈ 0.42 µM). In addition, in test [2], half-maximal inhibition (IC50) required 28 nM.

`Cc1ccccc1CN(Cc1ccc2c(c1)OCCO2)C(=O)c1cnc(N)o1` gave an IC50 in test [3] of 7 nM.

One may read the Ki as a measure of affinity in units of concentration, obtained from inhibition or displacement. High values mean a looser hold on the target, low ones a stronger hold on the target. `NCCNS(=O)(=O)c1cccc2cnccc12`: the Ki in test [4] stood at 49000 nM.

Turning to `COC(=O)C1CCCC(NCc2n[nH]c3cccc(OCc4cc(Cl)cc(Cl)c4)c23)C1` (stereo unspecified), the MIC in test [5] and in test [6] was 4 µg/mL (≈ 8.65 µM) each time. The compound also yielded a half-inhibitory concentration (IC50) in test [7] of 0.25 µg/mL (≈ 0.541 µM).

Compound `Cc1cc(=O)oc2cc(SCc3n[nH]c4cccc(OCc5ccc(C(C)(C)C)cc5)c34)ccc12` displayed an MNEC in test [7] of 0.03 µg/mL.

In test [1], `Nc1ncc2cc(-c3c(Br)cccc3Br)c(N)nc2n1` came in with an MIC of 0.125 µg/mL (≈ 0.316 µM). Moreover, in test [2], the IC50 was under 5 nM.

`COCC(C)(C)C(O)C(=O)NS(=O)(=O)OC[C@H]1O[C@@H](n2cnc3c(N)ncnc32)[C@H](O)[C@@H]1O` (stereo partly specified) came in with an inhibition constant Ki in test [8] of 300 nM.

One may read the Kd as the constant that tells how readily two partners part at equilibrium. As to `C[C@@H]1C[C@H]2O[C@@H]2/C=C\C=C\C(=O)Cc2c(Cl)c(O)cc(O)c2C(=O)O1` [RADICICOL], the Kd in [9] stood at 19 nM; in test [10] it was 715000 nM. In test [11], this compound returned an IC50 of 127000 nM.

In the case of `CC(C)(C)[C@@H](N)C(=O)NS(=O)(=O)OC[C@H]1O[C@@H](n2cnc3c(N)ncnc32)[C@H](O)[C@@H]1O`, affinity in test [8] was put at a Ki of 300 nM.

In turn, `NCCNS(=O)(=O)c1ccc(Cl)c2ccncc12` showed a Ki in [4] of 49000 nM.

Consider `O=S(=O)(c1ccc(Cl)c2ccncc12)N1CCNCC1`, for which the Ki in test [4] turned out to be 49000 nM.

With `N=C(N)NCCNS(=O)(=O)c1cccc2cnccc12`, the Ki in test [4] turned out to be 49000 nM.

The compound `COCCC(O)C(=O)NS(=O)(=O)OC[C@H]1O[C@@H](n2cnc3c(N)ncnc32)[C@H](O)[C@@H]1O` (stereo partly specified) displayed an inhibition constant Ki in [8] of 300 nM.

The compound `CC(C)(C)C(O)C(=O)NS(=O)(=O)OC[C@H]1O[C@@H](n2cnc3c(N)ncnc32)[C@H](O)[C@@H]1O` (stereo partly specified) registered an inhibitory constant (Ki) in [8] of 300 nM.

With `COc1ccc2c(c1)cc(CNC(=O)c1cc3ccccc3o1)n2CC(=O)O`, the Kd in [12] was determined as 860 nM.

In turn, `CC(C)(C)C(=O)C(=O)NS(=O)(=O)OC[C@H]1O[C@@H](n2cnc3c(N)ncnc32)[C@H](O)[C@@H]1O` registered a Ki in [8] of 300 nM.

For the compound `C[C@H]1CNCCN1S(=O)(=O)c1cccc2cnccc12`, the Ki in test [4] worked out at 49000 nM.

In turn, `CO[C@@H]1[C@@H](OC(N)=O)[C@@H](O)[C@H](Oc2ccc3c(O)c(NC(=O)c4ccc(O)c(CC=C(C)C)c4)c(=O)oc3c2C)OC1(C)C` [NOVOBIOCIN] displayed a Kd in [13] of 120000 nM. Moreover, the IC50 in test [14] stood at 210 nM.

As for `COc1ccc2c(c1)cc(C)n2CC(=O)O`, in test [12], the affinity, expressed as Kd, was 800000 nM.

The values are drawn from ChEMBL document CHEMBL2176884, “ATP-binding site of bacterial enzymes as a target for antibacterial drug design” (J Med Chem, 2011).
